Data on one compound can be found in patent US9296716B2, “Androgen receptor ligands” (THE PROVOST, FELLOWS, FOUNDATION SCHOLARS, & THE OTHER …, priority 2011, dated 2016).

The test system of one assay is LNCaP cells. Briefly: LNCaP cell proliferation assay (androgen deprived, AlamarBlue). The settings on record: LNCaP. The class given is cell-based. How it is done: To determine the optimal DHT concentration and length of treatment required for cell proliferation assays, we tested a range of DHT concentrations in 0.1% DMSO for 5 or 7 days in LNCaP cells cultured in FBS stripped phenol red free media. […] Media and treatments were replaced every second incubation day (FIGS. 12 A and B)
For cell viability (end point) assays LNCaP, PC-3 and PWR-1E cells were seeded at 2.5*10^4/ml density in 200 μl volume of a 96-well plate in triplicate and incubated for 24 hours prior testing. Test compounds were included at different concentrations to achieve a final concentration of 0.5% DMSO in each well. Effect of 0.5% DMSO on cell-viability was also evaluated. Cell viability was assessed after 24 hours of treatment using 10% Alamar Blue reagent (Invitrogen) for each well. Cell viability was monitored by the reduction of resazurin, a blue, cell-permeable and non-toxic compound, to resorufin, a red and highly fluorescent product. Viable cells continuously convert resazurin to resorufin, increasing the overall colour and fluorescence of the media surrounding cells. Fluorescence intensity can be quantitatively determined with a fluorescence microplate reader at excitation/emission 544 nm/590 nm (Spectramax Gemini). For hormone dependent cell proliferation assays in androgen deprived LNCaP cells, cells were seeded at 2*10^4 cells/ml in a 24-well plate in triplicate. Cells were plated in phenol red free RPMI Glutamax (Invitrogen) supplemented with 10% charcoal-stripped FBS to deplete endogenous steroids 48 hours prior the assay as described in previous reports. […] Cells were treated with different concentrations of test compounds with or without 0.1 nM DHT to achieve a final concentration of 0.1% DMSO in each well. A control for the vehicle was included to ensure no effect on viability could be detected. Media and treatments were replaced every second day, after washing the cells twice with 1×PBS. Supernatants were collected after five days for secreted PSA levels evaluation and cell proliferation was assessed for the same plate using Alamar Blue in order to exclude non-specific effects due to toxicity issues.

Assay [1] deals with Estrogen Receptor beta (ER-β) LBD (Homo sapiens, UniProt Q92731). Briefly: TR-FRET PGC1-α coactivator recruitment assay, ERβ LBD. The class given is biochemical. Particulars: Estradiol = EC80. How it is done: (§1) Compound binding affinities for Progesterone Receptor (PR), Glucocorticoid Receptor (GR), Estrogen Receptor alpha and Estrogen Receptor beta were determined using TR-FRET (Table 2).
(§2) Selectivity of the diarylhydrazide scaffold for the AR was determined through a TR-FRET assay in ERα (FIGS. 8A & 9A1) and ERR (FIGS. 8B & 9A2). […] The non-LBP nature of this inhibition was confirmed by a FP assay (FIGS. 9C, 9B1 & 9B2).
(§3) Lanthascreen TR-FRET AR Coactivator Assay kit (Invitrogen, cat no. PV4381) was used to screen for potential coactivator disruptors.
(§4) TR FRET values were calculated at 10 flashes per well, using a delay time of 100 μs and integration time 200 μs as recommended by the Invitrogen assay guidelines. […] A serial dilution of compounds was firstly prepared in 100×DMSO (Sigma-Aldrich) starting from the maximum desired concentration to achieve a 12 point range concentration using 96-well polypropylene plates (Nalgene Nunc, Rochester, N.Y.). Each 100× solution was diluted to 2× concentration with TR-FRET co-regulator buffer A (Invitrogen proprietary buffer), yielding a final concentration of 1% DMSO in each well.
(§5) D11-FxxLF and Tb antibody were premixed in light protecting vials prior to use. A final concentration of DTT 5 mM was used in the assay buffer in order to prevent protein degradation. All plates (agonist and antagonist mode) were incubated between 2 and 4 hours at room temperature protected from light prior to TR-FRET measurement. […] Data was fitted using the sigmoidal dose response (variable slope) available from Graphpad Prism 5. Y=Bottom+(Top-Bottom)/(1+10^((Log IC50−X)*HillSlope))
(§6) The same procedure was used for AR T877A (Invitrogen cat no. PV4667), PR (Invitrogen cat no. PV4666), ER-α (Invitrogen cat no. PV4544), ER-β (Invitrogen cat no. PV4541) and GR (Invitrogen cat no. PV4683). The assay was adapted to exclude possible non-specific aggregation mechanism of inhibition by adding very low concentration of detergent Triton X-100 (0.001%) to the assay buffer following the Shoichet review guidelines [Shoichet BK (2006) Screening in a spirit haunted world. Drug Discov Today 11:607-615].
For orientation: In TR-FRET formats the signal depends on donor and acceptor labels being close together.

For assay [2], the target named is T1, Glucocorticoid Receptor (GR) LBD (Homo sapiens, UniProt P04150).
T1 construct: purchased Invitrogen PV4683
T1 sequence (P04150 524-758 limits assumed): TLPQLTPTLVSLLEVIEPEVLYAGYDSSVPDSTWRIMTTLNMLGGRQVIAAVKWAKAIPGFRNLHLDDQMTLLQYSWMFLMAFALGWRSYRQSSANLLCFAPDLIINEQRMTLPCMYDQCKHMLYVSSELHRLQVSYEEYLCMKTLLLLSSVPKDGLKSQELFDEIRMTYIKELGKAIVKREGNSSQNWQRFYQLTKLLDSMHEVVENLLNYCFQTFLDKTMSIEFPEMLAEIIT
Briefly: TR-FRET SRC1-4 coactivator recruitment assay, GR LBD. The class given is biochemical. Particulars: Dexamethasone = EC80. How it is done: as §1
Dexamethasone bound receptor recruitment of the fluorescently labelled SCR1-4 coactivator was unimpaired at screening concentrations up to 100 μM for all the diarylhydrazides evaluated (FIG. 5).
as §3, §4, §5, §6

Assay [3] deals with T2, Estrogen Receptor alpha (ER-α) LBD (Homo sapiens, UniProt P03372).
T2 sequence (P03372 311-547 limits assumed): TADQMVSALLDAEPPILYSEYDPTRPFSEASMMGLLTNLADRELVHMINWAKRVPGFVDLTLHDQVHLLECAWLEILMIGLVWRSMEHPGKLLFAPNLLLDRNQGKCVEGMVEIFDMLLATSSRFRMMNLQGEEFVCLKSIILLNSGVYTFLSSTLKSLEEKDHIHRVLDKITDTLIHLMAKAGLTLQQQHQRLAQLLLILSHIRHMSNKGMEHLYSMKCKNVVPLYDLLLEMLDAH
Briefly: TR-FRET PGC1-α coactivator recruitment assay, ERα LBD. The class given is biochemical. The settings on record: Estradiol = EC80. On the procedure: as §1, §2, §3, §4, §5, §6

Chain of Estrogen Receptor beta (ER-β) LBD (Q92731 264-498 limits assumed): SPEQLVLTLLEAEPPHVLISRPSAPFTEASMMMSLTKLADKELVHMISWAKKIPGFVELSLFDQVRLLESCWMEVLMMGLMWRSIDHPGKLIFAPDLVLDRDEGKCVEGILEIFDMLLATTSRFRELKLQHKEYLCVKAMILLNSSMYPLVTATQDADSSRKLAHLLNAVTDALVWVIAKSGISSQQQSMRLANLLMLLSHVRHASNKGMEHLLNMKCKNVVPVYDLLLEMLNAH

What is called IC50 is the point on the concentration scale where inhibition reaches its midpoint. Consider `COc1cc(/C=N/NC(=O)c2cc3c(ccc4ccccc43)o2)cc(OC)c1O` [MDG506], for which, in the assay on LNCaP cells (DHT 0.1 nM, 5 days), the “DHT dependent cell proliferation” value is reported as “clear dose dependent effect in reducing”. Further, in the assay with LNCaP cells (MDG506 at 10 or 20 μM), the “CPA induced cell proliferation” value is “reduces”. The “cell proliferation in absence of DHT / androgens” value in the assay on LNCaP cells (androgen deprived media, no DHT) is recorded as “does not induce”. In addition, in assay [1] (100 μM to 45 nM), the “effect on ERβ recruitment of fluorescent labelled PGC1-α” value is reported as “partially inhibit”. Besides, the IC50 was above 100 µM in assay [1] (TR-FRET, ± SEM (n = 6), read-out: NR LBDs IC50 (μM) ER-β); above 100 µM in assay [2] (TR-FRET, ± SEM (n = 6), read-out: NR LBDs IC50 (μM) GR); above 100 µM in assay [3] (TR-FRET, ± SEM (n = 6), read-out: NR LBDs IC50 (μM) ER-α). The “effect on SRC1-4 recruitment by GR LBD” value in assay [2] (100 μM to 12.5 μM or single point 100 μM) is “do not affect”. The “effect on ERα recruitment of fluorescent labelled PGC1-α” value in assay [3] (100 μM to 45 nM) is listed as “partially inhibit”.
